In the METLIN SMRT retention time set (Domingo-Almenara et al. 2019) one finds RP-LC retention time data, which are given here for 33 compounds.

This data set in a line: gradient 5% acetonitrile 3 min, to 50% in 2 min, to 85% in 15 min, held 3 min, 100 µL/min. To be noted: column: Zorbax Extend-C18 2.1 x 50 mm; eluents: water / acetonitrile, 0.1% formic acid. In a few lines: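 Retention times of pure standards were taken from adduct peaks that were selected by computer and manually inspected. Over 3 months, mixtures of ~100 molecules were run by HPLC–quadrupole time-of-flight mass spectrometry in positive and negative ionization mode. The Zorbax Extend-C18 column (2.1 × 50 mm, 1.8 μm) ran at 100 μL/min in water and acetonitrile, each containing 0.1% formic acid, with 40 μL dead volume and 900 μL dwell volume.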
On to `Cc1cccc(C)c1NC(=O)Cn1cnc2c(sc3nc(-c4ccccc4)ccc32)c1=O`, for which the RP-LC retention time was determined as 972 s.
In turn, `CCn1c(C)c(C(C)=O)c2cc(OCC(O)CNC(C)c3ccccc3)ccc21` (stereo not drawn) came in with an RP-LC retention time of 590 s.
`COc1cccc(-c2cc3c(=O)n(CC(O)c4ccc(C(C)C)cc4)ccn3n2)c1` (stereo not drawn) had an RP-LC retention time of 1060 s.
In the case of `Cc1ccc(NC(=O)Cn2c(NCCN3CCOCC3)nc3ccccc32)cc1`, the RP-LC retention time is 556 s.
For `O=C(Cn1nc2c3cc(-c4ccc(Cl)cc4)nn3ccn2c1=O)NC1CCCCC1` the value was 906 s; for `CCS(=O)(=O)N1CCCc2cc(C(=O)NC)ccc21`, 657 s; for `COC(=O)c1c(NCCc2ccc(Cl)cc2)c2ccc(F)cc2[nH]c1=O`, 795 s.
For `Cc1ccc(Nc2c(-c3cc(Br)ccc3F)nc3ccc(C)cn23)cc1` the value was 812 s; for `CCOC(=O)c1nc(Nc2cc(C)ccc2C)c2ccccc2n1`, 870 s.
For `Cc1ccccc1NC(=O)CSc1nc(=O)n(CCN(C)C)c2c1CCC2` the value was 610 s.
Compound `Cc1ccc(C(=O)Nc2nc(-c3ccc4c(c3)N(C)C(=O)CO4)c(C)s2)cc1` showed an RP-LC retention time of 1030 s.
As for `CCCNC(=O)N1CCCCC1c1nc(C2CC2)n[nH]1` (stereo not drawn), the figure is 610 s; as for `Cc1ccc(NC(=O)N2CCc3[nH]cnc3C2c2ccncc2)c(Cl)c1` (stereo not drawn), 753 s; as for `CCn1cc(CCNC(=O)Cc2ccccc2C)c2cccnc21`, 721 s.
As for `Cc1cc(=O)n(CC(=O)Nc2ccc3c(c2)OCCO3)c(N2CCOCC2)n1`, the figure is 634 s.
As for `CCN(CC)CCNC(=O)Cc1noc2ccc(C)cc12`, the figure is 604 s.
Consider `O=C(NCCn1ncccc1=O)NCc1ccccc1`, for which the RP-LC retention time was 578 s.
As for `CCc1nn(C)c(=O)c2cc(S(=O)(=O)NC(C)c3ccccc3)cn12` (stereo not drawn), the figure is 870 s.
As for `CC(C)c1nnc(-c2ccc(S(=O)(=O)N3CCN(c4ccccn4)CC3)o2)o1`, the figure is 675 s; as for `Cc1ccc(Cn2c(CN3CCC(C(=O)NCc4ccccn4)CC3)cc3ccccc32)cc1`, 655 s.
Take `O=S(=O)(NCc1nnnn1C1CCCCC1)c1cccs1`: the RP-LC retention time was determined as 740 s.
`COc1ccc(Br)cc1CNC(=O)Cn1cc(-c2nnco2)c2ccccc21` yielded an RP-LC retention time of 855 s.
Regarding `O=C(Cn1ncc2c(N3CCN(c4ccccn4)CC3)ncnc21)N1CCN(c2ccccc2)CC1`, the RP-LC retention time turned out to be 603 s.
As for `CCOC(=O)N1CCN(c2ncc(C(=O)Nc3ccc(OCC)cc3)c(N)n2)CC1`, the figure is 718 s; as for `O=C(CCc1c[nH]c2ccccc12)N1CCN2CCS(=O)(=O)N(C3CC3)C(=O)C2C1` (stereo not drawn), 766 s.
`CCc1noc2nc(CCC(=O)NCCN3CCN(CC)CC3)nc(N3CCCCC3)c12`: the RP-LC retention time stood at 599 s.
As for `CC(C)CC(=O)Nc1ccc(-n2cnc(C(=O)N3CCC(C)CC3)c2)nc1`, the figure is 774 s.
As for `CCc1ccc(-n2ncc3c(=O)n(Cc4nc(-c5ccc(C)c(C)c5)no4)cnc32)cc1`, the figure is 1300 s.
For `Cc1ccc(C)c(Nc2c(-c3ccc(O)cc3)nc3ncccn23)c1` the value was 664 s; for `CCOC(=O)c1ccccc1NC(=O)Cn1nc2c(N3CCSCC3)nccn2c1=O`, 1010 s.
`Cc1cc(F)ccc1NC(=O)Cn1ccc2sccc2c1=O` showed an RP-LC retention time of 726 s.
In turn, `COc1nn(C)cc1C(=O)NCC(=O)Nc1cccc2nsnc12` registered an RP-LC retention time of 636 s.
Take `CCCNC(=O)C1CCN(S(=O)(=O)c2cc(-c3noc(CC)n3)cs2)CC1`: the RP-LC retention time was 830 s.
